Laboratory results taken from ChEMBL document CHEMBL6087454, “Identification of Novel Organo-Se BTSA-Based Derivatives as Potent, Reversible, and Selective PPARγ Covalent Modulators for Antidiabetic Drug Discovery” (J Med Chem, 2025).
pIC50, pKi: −log10 of the molar value. Calls of active or inactive are those of the source. No cut-off for these calls is given here.

Tests used:
[1] = target: T1, Peroxisome proliferator-activated receptor gamma (Homo sapiens, UniProt P37231); test: Displacement of fluormone pan-PPAR green from recombinant GST-tagged human PPAR-gamma ligand binding domain (E235 to Y505 residues) extracted from Escherichia coli BL21 (DE3) cells by TR-FRET assay
T1 sequence (P37231 whole entry): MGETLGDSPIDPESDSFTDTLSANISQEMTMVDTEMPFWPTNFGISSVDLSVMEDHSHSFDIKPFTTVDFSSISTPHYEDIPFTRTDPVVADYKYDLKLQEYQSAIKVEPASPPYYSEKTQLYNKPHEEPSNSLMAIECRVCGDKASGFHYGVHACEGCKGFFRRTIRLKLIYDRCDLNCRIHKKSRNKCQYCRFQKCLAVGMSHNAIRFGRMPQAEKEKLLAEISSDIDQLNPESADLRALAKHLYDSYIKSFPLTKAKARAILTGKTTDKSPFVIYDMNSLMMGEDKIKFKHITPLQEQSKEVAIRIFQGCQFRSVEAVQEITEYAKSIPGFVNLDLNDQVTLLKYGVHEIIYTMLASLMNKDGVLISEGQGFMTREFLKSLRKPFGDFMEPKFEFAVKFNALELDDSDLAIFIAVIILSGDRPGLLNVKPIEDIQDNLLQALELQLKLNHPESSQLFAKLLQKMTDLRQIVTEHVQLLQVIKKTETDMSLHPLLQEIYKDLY

[2] = target: T1, Peroxisome proliferator-activated receptor gamma; test: Binding affinity to recombinant GST-tagged human PPAR-gamma ligand binding domain (E235 to Y505 residues) extracted from Escherichia coli BL21 (DE3) cells assessed as inhibition constant in presence of fluormone pan-PPAR green tracer by TR-FRET assay
[3] = Toxicity in male db/db mouse model assessed as increase in serum AST level at 10 mg/kg/day, po administered for 4 weeks by ELISA; assay type: organism-based; conditions: in vivo, 672 h
3T3-L1 = test: Induction of adipocyte differentiation in mouse 3T3-L1 cells assessed as lipid accumulation at 1 uM measured after 48 hrs in presence of 1-oxido-1-(4-(tosyloxy)phenyl)-1lambda4-benzo[d][1,3,2]thiaselenazol-5-yl 4-methylbenzenesulfonate by Oil red O staining based inverted microscopic analysis; assay type: functional, cell-based
[4] = target: T2, Peroxisome proliferator-activated receptor gamma (Homo sapiens) (UniProt P37231); test: Covalent binding affinity to recombinant PPAR-gamma ligand binding domain (unknown origin) at Cys285 residue at 0.4 uM incubated for 30 mins by rhodamine-maleimide staining based SDS-PAGE analysis
T2 sequence (whole entry): T1 sequence (P37231 whole entry)

[5] = Toxicity in male db/db mouse model assessed as increase in white adipocytes size at 10 mg/kg/day, po administered for 4 weeks by H and E staining based analysis; assay type: organism-based; conditions: in vivo, 672 h
[6] = Toxicity in male db/db mouse model assessed as increase in serum ALT level at 10 mg/kg/day, po administered for 4 weeks by ELISA; assay type: organism-based; conditions: in vivo, 672 h
[7] = Toxicity in male db/db mouse model assessed as increase in lipid accumulation in liver at 10 mg/kg/day, po administered for 4 weeks by Oil red O staining based analysis; assay type: organism-based; conditions: in vivo, 672 h
[8] = Toxicity in male db/db mouse model assessed as increase in brown adipocytes size at 10 mg/kg/day, po administered for 4 weeks by H and E staining based analysis; assay type: organism-based; conditions: in vivo, 672 h
[9] = Toxicity in male db/db mouse model assessed as hepatomegaly in liver at 10 mg/kg/day, po administered for 4 weeks; assay type: organism-based; conditions: in vivo, 672 h
[10] = Toxicity in male db/db mouse model assessed as increase in blood triglyceride level at 10 mg/kg/day, po administered for 4 weeks by ELISA; assay type: organism-based; conditions: in vivo, 672 h
[11] = Toxicity in male db/db mouse model assessed as increase in blood cholesterol level at 10 mg/kg/day, po administered for 4 weeks by ELISA; assay type: organism-based; conditions: in vivo, 672 h
[12] = Toxicity in male db/db mouse model assessed as increase in liver weight at 10 mg/kg/day, po administered for 4 weeks; assay type: organism-based; conditions: in vivo, 672 h
[13] = Toxicity in male db/db mouse model assessed as lipid accumulation in liver at 10 mg/kg/day, po administered for 4 weeks; assay type: organism-based; conditions: in vivo, 672 h

SMILES: O=S1(CCl)=N[Se]c2ccccc21 (stereo not given)
- pIC50 [1]: < 4.30
- pKi [2]: < 4.74

SMILES: CS1(=O)=N[Se]c2cccc(Cl)c21 (stereo not given)
- pIC50 [1]: < 4.30
- pKi [2]: < 4.74

SMILES: CCS1(=O)=N[Se]c2ccccc21 (stereo not given)
- pIC50 [1]: < 4.30
- pKi [2]: < 4.74

SMILES: Cc1cc(C)cc(S2(=O)=N[Se]c3c(C)cc(C)cc32)c1 (stereo not given)
- pIC50 [1]: 4.42
- pKi [2]: 4.86

SMILES: O=S1(c2ccccc2)=N[Se]c2ccccc21 (stereo not given)
- pIC50 [1]: < 4.30
- pKi [2]: < 4.74

SMILES: CS1(=O)=N[Se]c2ccc(Cl)cc21 (stereo not given)
- pIC50 [1]: < 4.30
- pKi [2]: < 4.74

SMILES: Cc1cccc(S2(=O)=N[Se]c3ccc(C)cc32)c1 (stereo not given)
- pIC50 [1]: 5.08
- pKi [2]: 5.53

SMILES: COc1cccc(S2(=O)=N[Se]c3ccc(OC)cc32)c1 (stereo not given)
- pIC50 [1]: 5.48
- pKi [2]: 5.93

SMILES: O=S1(c2ccc(Cl)cc2)=N[Se]c2cc(Cl)ccc21 (stereo not given)
- pIC50 [1]: 4.39
- pKi [2]: 4.84

SMILES: CN(CCOc1ccc(CC2SC(=O)NC2=O)cc1)c1ccccn1 (stereo not given) [ROSIGLITAZONE]
- Activity [3]: Toxic
- Activity (3T3-L1): inactive
- Activity [4]: inactive
- Activity [5]: Toxic
- Activity [6]: Toxic
- Activity [7]: Toxic
- Activity [8]: Toxic
- Activity [9]: Toxic
- Activity [10]: Non-toxic
- Activity [11]: Toxic
- Activity [12]: Toxic
- Activity [13]: Toxic

SMILES: O=S1(c2cccc(Cl)c2)=N[Se]c2ccc(Cl)cc21 (stereo not given)
- pIC50 [1]: 6.19
- pKi [2]: 6.64

SMILES: O=S1(c2ccc(C(F)(F)F)cc2)=N[Se]c2cc(C(F)(F)F)ccc21 (stereo not given)
- pIC50 [1]: 5.76
- pKi [2]: 6.21

SMILES: O=S(=O)(Oc1ccc(S2(=O)=N[Se]c3cc(OS(=O)(=O)C(F)(F)F)ccc32)cc1)C(F)(F)F (stereo not given)
- pIC50 [1]: 5.61
- pKi [2]: 6.05

SMILES: COC(=O)c1ccc2c(c1)[Se]N=S2(C)=O (stereo not given)
- pIC50 [1]: < 4.30
- pKi [2]: < 4.74

SMILES: O=S1(c2ccc(Br)cc2)=N[Se]c2cc(Br)ccc21 (stereo not given)
- pIC50 [1]: 5.83
- pKi [2]: 6.28

SMILES: CS1(=O)=N[Se]c2cc(Cl)ccc21 (stereo not given)
- pIC50 [1]: < 4.30
- pKi [2]: < 4.74

SMILES: CS1(=O)=N[Se]c2ccccc21 (stereo not given)
- pIC50 [1]: < 4.30
- pKi [2]: < 4.74

SMILES: Cc1ccccc1S1(=O)=N[Se]c2cccc(C)c21 (stereo not given)
- pIC50 [1]: 4.41
- pKi [2]: 4.85

SMILES: O=S1(C2CC2)=N[Se]c2ccccc21 (stereo not given)
- pIC50 [1]: < 4.30
- pKi [2]: < 4.74

SMILES: Cc1ccc(S2(=O)=N[Se]c3cc(C)ccc32)cc1 (stereo not given)
- pIC50 [1]: 4.90
- pKi [2]: 5.34

SMILES: CCCc1ccc(S2(=O)=N[Se]c3cc(CCC)ccc32)cc1 (stereo not given)
- pIC50 [1]: 5.68
- pKi [2]: 6.12

SMILES: CC(C)(C)c1ccc(S2(=O)=N[Se]c3cc(C(C)(C)C)ccc32)cc1 (stereo not given)
- pIC50 [1]: 5.91
- pKi [2]: 6.35

SMILES: Cc1ccc2c(c1)[Se]N=S2(C)=O (stereo not given)
- pIC50 [1]: < 4.30
- pKi [2]: < 4.74

SMILES: O=S1(c2ccc(-c3ccccc3)cc2)=N[Se]c2cc(-c3ccccc3)ccc21 (stereo not given)
- pIC50 [1]: 5.77
- pKi [2]: 6.22

SMILES: O=[N+]([O-])c1ccc(S2(=O)=N[Se]c3cc([N+](=O)[O-])ccc32)cc1 (stereo not given)
- pIC50 [1]: 6.17
- pKi [2]: 6.62
